Data reported in ChEMBL document CHEMBL2434869, “Pyrazole containing natural products: synthetic preview and biological significance” (Eur J Med Chem, 2013).

Assays:
[1] = Cytotoxicity against mouse Gardner lymphosarcoma cells assessed as growth inhibition; type: functional
[2] = system: X5563; experiment: Cytotoxicity against mouse X5563 cells assessed as growth inhibition; type: functional
[3] = Cytotoxicity against rat Walker 256 cells assessed as growth inhibition; type: functional
[4] = Cytotoxicity against mouse mammary carcinoma 755 cells assessed as growth inhibition; type: functional
[5] = Cytotoxicity against mouse EAC assessed as growth inhibition; type: functional, Ehrlich
[6] = Toxicity in white mouse; type: organism-based; details: in vivo

| Structure (SMILES) | growth inhibition (GI) [1] | growth inhibition (GI) [2] | growth inhibition (GI) [3] | growth inhibition (GI) [4] | growth inhibition (GI) [5] | MTD [6] |
| --- | --- | --- | --- | --- | --- | --- |
| NC(=O)c1ncn([C@@H]2O[C@H](CO)[C@@H](O)[C@H]2O)n1 [RIBAVIRIN] | >50% | >50% | >50% | >50% | – | – |
| COc1nnc2nn(C)cnc1-2 | – | – | – | – | 40% | 0.2 mg/kg |
| COc1[nH]nc2nncnc12 | – | – | – | – | 83% | 50 mg/kg |
| COc1nnc2n(C)ncnc1-2 [PSEUDOIODININE] | – | – | – | – | 64% | 20 mg/kg |
